Experimental data published in US5674909A, “Derivatives of 2-amino-1,2,3,4-tetrahydronaphthalene active on the cardiovascular system” (Zambon Group, priority 1994, dated 1997).

Experiments:
D1 receptor = D1 receptor (Rattus norvegicus, UniProt P18901); test: biochemical; type: binding, rat (Sprague-Dawley); conditions: [3H]-SCH23390 0.2 nM, rat striated membranes, pH 7.4, 37° C., 20 minutes; read-out: Affinity [K1 (nM)] towards D1 receptor
Procedure: (§1) The tissue were homogenized in 50 mM Tris/HCl buffer at pH 7.4 (1:100 w/v).
(§2) The homogenate was centrifuged and the pellet resuspended, recentrifuged and resuspended again in 50 mM Tris/HCl buffer at pH 7.4 containing 120 mM NaCl, 5 mM KCl, 2 mM CaCl2 and 1 mM MgCl2.
The mixture was incubated with different concentrations of the tested compounds at 37° C. for 20 minutes, filtered under vacuum through Whatman GF/C filters and then washed 4 times with 5 ml of 50 mM Tris/HCl buffer (pH 7.4) cooled with ice.

[1] = tested on: D1 -like (Rabbit Splenic Artery); test: D1-like activity in the Rabbit Splenic Artery (RSA) test; conditions: agonist activity at the peak of the effect; contracted with U46619 0.1 μM
Procedure: Arterial rings were prepared according to Semeraro et al., Naunyn. Schmied. Arch. Pharmacol., 1990, 342, 539.
The arterial preparations were contracted with U46619 (9,11-di-deoxy-11α,9α-epoxy-methanoprostaglandin F2α) at the submaximal concentration 0.1 μM.
(§3) The tested compounds were cumulatively administered.
(§4) Ref. A was used as reference substance.
(§5) Agonist activity evaluated at the peak of the effect and expressed as potency ratio (EC50 of Ref. A/EC50 of tested compound) is reported in table 2.

D2 receptor = D2 receptor (Rattus norvegicus, UniProt P61169); test: biochemical; type: binding, rat (Sprague-Dawley); conditions: [3H]-domperidone 0.3 nM, rat striated membranes, 0.01% BSA, 37° C., 30 minutes; read-out: Affinity [K1 (nM)] towards D2 receptor
Procedure: as §1, §2
Furthermore, bovine serum albumine (BSA) (0.01%) was added.
The mixture was incubated at 37° C. for 30 minutes for each concentration of tested compounds.

[2] = biological target: T1, D2 -like (Rabbit Ear Artery) (Oryctolagus cuniculus, UniProt G1T1Q0); test: D2-like activity in the Rabbit Ear Artery (REA) test; parameters: species or system New Zealand rabbit; conditions: agonist activity at the peak of the effect; electrically stimulated
T1 construct: the central ear artery was dissected into 3 mm long rings; from tissue; host or cells: rabbit central ear artery rings (male New Zealand rabbits), electrically stimulated
Procedure: Arterial rings were prepared according to the method described by Steinsland et al., Science, 1978, 443, 199, modified as follows. Male New Zealand rabbits weighing 2.5-3 Kg were sacrificed by intravenous injection of an excess of pentobarbital sodium and exsanguinated. The two ears were taken away and the central ear artery was dissected into 3 mm long rings.
These preparations were set up in a 25 ml organ bath containing Krebs solution (mM/l): NaCl 118, KCl 4.7, CaCl2 2.5, MgSO4 1.2, NaHCO3 25, KH2 PO4 1.2, glucose 11.1, equilibrated with 95% 02 -5% CO2 and maintained at 35°±1° C.
Krebs solution was medicated with EDTA (10 μM) to prevent cathecolamine oxydation, desipramine (0.1 μM) and corticosterone (30 μM), to block neuronal and extraneuronal cathecolamine uptake. The preparations were electrically stimulated (10 Hz, 1 msec, 40-80 mA, 500 msec duration) at 5 minutes intervals.
as §3, §4, §5

[3] = tested on: spontaneously hypertensive rats; test: In vivo antihypertensive activity, i.v., spontaneously hypertensive rats; parameters: species or system rat (spontaneously hypertensive, Charles River); conditions: 30 nmol/kg i.v. bolus; recorded over 4 hours; basal MBP 190-200 mmHg; Ref. A n = 6, Compound 22 n = 7
Procedure: Male spontaneously hypertensive rats (Charles River) more than 14 weeks old were used.
Catheters were inserted into the right carotid artery and into the left giugular vein under barbituric anesthesia.
The animals were allowed to recover overnight.
The tested compounds were administered into the left giugular vein by bolus injection.
Control animals were injected with an equal volume of vehicle. The induced effect was continuously recorded over a period of 4 hours.
Basal values of Mean Blood Pressure (MBP) were in the range of 190-200 mmHg.
The antihypertensive activity of compound 22 expressed as MBP reduction compared with the antihypertensive activity of Ref. A is reported in the following table.

[4] = Fitton and Benfield, Drugs 1990; cited from earlier work
dopaminergic receptors = conditions: Fitton and Benfield, Drugs 1990; cited from earlier work

Sequence of D2 receptor (P61169 whole entry): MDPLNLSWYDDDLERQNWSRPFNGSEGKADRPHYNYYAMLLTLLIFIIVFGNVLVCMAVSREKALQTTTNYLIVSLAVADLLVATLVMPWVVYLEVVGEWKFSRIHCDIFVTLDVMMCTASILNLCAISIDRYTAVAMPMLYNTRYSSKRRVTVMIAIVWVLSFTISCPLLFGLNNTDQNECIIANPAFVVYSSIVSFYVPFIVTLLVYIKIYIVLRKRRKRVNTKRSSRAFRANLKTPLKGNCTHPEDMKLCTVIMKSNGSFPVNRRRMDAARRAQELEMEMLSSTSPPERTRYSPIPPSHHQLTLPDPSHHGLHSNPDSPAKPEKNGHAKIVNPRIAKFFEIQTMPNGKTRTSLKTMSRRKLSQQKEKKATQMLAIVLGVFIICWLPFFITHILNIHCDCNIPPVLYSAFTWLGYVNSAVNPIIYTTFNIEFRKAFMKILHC
T1 sequence (G1T1Q0 1-443): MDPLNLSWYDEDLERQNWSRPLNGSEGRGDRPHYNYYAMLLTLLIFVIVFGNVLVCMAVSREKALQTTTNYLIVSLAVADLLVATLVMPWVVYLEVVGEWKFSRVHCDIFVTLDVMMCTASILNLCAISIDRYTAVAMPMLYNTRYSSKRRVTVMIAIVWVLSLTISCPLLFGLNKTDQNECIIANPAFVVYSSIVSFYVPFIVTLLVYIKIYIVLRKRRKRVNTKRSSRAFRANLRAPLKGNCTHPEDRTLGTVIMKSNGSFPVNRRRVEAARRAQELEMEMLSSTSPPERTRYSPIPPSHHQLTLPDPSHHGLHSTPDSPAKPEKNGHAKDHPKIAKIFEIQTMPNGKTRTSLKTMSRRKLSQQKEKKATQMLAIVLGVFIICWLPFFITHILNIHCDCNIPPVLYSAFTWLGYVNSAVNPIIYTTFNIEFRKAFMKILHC
Sequence of D1 receptor (P18901 whole entry): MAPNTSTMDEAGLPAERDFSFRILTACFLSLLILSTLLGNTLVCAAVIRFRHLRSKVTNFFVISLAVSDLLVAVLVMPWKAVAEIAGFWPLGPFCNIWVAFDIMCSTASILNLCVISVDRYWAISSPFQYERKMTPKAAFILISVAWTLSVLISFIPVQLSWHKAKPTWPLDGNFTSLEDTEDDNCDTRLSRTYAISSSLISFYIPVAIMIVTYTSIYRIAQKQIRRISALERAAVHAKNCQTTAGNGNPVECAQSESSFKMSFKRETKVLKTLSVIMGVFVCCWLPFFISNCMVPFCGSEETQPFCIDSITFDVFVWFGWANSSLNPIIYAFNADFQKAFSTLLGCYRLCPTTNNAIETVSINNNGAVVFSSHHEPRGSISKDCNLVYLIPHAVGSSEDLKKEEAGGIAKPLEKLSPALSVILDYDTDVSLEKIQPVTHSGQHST

SMILES | Ki (D1 receptor) [nM] | D1 -like (RSA) potency ratio (EC50 of Ref. A/EC50 of tested compound) [1] | Ki (D2 receptor) [nM] | D2 -like (REA) potency ratio (EC50 of Ref. A/EC50 of tested compound) [2] | MBP reduction, mean ± S.E. [3] [mmHg] | absorption when administered by oral route [4] | agonist activity at dopaminergic receptors compared with dopamine (dopaminergic receptors)
Br.Br.CCCN(CCCCCCNCCCc1ccccc1O)[C@H]1CCc2c(ccc(O)c2O)C1 [Compound 16, (S)-N-propyl-N-[6-[3-(2-hydroxyphenyl)propylamino]hexyl]-5,6-dihydroxy-1,2,3,4-tetrahydro-2-naphthylamine dihydrobromide] | 178 | 3 | 0.2 | 0.8 |  |  | 
Br.Br.CCCN(CCCCCCNCCc1ccc(S(C)(=O)=O)cc1)[C@H]1CCc2c(ccc(O)c2O)C1 [Compound 22, (S)-N-propyl-N-[6-[2-(4-methylsulphonylphenyl)ethylamino]hexyl]-5,6-dihydroxy-1,2,3,4-tetrahydro-2-naphthylamine dihydrobromide] |  | 14 |  | 3 | -61.7 ± 5.7 |  | 
Br.CCCN(CCCCCCNC(=O)Cc1ccc(O)c(O)c1)[C@H]1CCc2c(ccc(O)c2O)C1 [Compound 34, (S)-N-propyl-N-[6-[(3,4-dihydroxyphenyl)acetylamino]hexyl]-5,6-dihydroxy-1,2,3,4-tetrahydro-2-naphthylamine hydrobromide] | 356 | 2.5 | 2.1 | 5 |  |  | 
NCCc1ccc(O)c(O)c1 [Dopamine] |  |  |  |  |  | not absorbed when administered by oral route | 
Oc1ccc(CCNCCCCCCNCCc2ccccc2)cc1O [Dopexamine, dopexamine] |  |  |  |  |  | not absorbed when administered by oral route | less active than dopamine

Second part, led by results:

Ki (D1 receptor) [nM] | D1 -like (RSA) potency ratio (EC50 of Ref. A/EC50 of tested compound) [1] | Ki (D2 receptor) [nM] | D2 -like (REA) potency ratio (EC50 of Ref. A/EC50 of tested compound) [2] | SMILES | MBP reduction, mean ± S.E. [3] [mmHg] | absorption when administered by oral route [4] | agonist activity at dopaminergic receptors compared with dopamine (dopaminergic receptors)
117 | 1.4 | 0.6 | 2 | Br.Br.CCCN(CCCCCCN1CCc2cc(O)c(O)cc2C1)[C@H]1CCc2c(ccc(O)c2O)C1 [Compound 10, (S)-N-propyl-N-[6-(6,7-dihydroxy-1,2,3,4-tetrahydroisoquinolin-2-yl)hexyl]-5,6-dihydroxy-1,2,3,4-tetrahydro-2-naphthylamine dihydrobromide] |  |  | 
29 | 10 | 0.4 | 14 | Br.Br.CCCN(CCCCCCNCCCc1ccc(O)c(O)c1)[C@H]1CCc2c(ccc(O)c2O)C1 [Compound 13, (S)-N-propyl-N-[6-[3-(3,4-dihydroxyphenyl)propylamino]hexyl]-5,6-dihydroxy-1,2,3,4-tetrahydro-2-naphthylamine dihydrobromide] |  |  | 
119 | 0.9 | 0.24 | 0.5 | Br.Br.Br.CCCN(CCCCCCN1CCN(Cc2ccc(O)cc2)CC1)[C@H]1CCc2c(ccc(O)c2O)C1 [Compound 15, (S)-N-propyl-N-[6-[4-(4-hydroxyphenylmethyl)piperazin-1-yl]hexyl]-5,6-dihydroxy-1,2,3,4-tetrahydro-2-naphthylamine trihydrobromide] |  |  | 
45 | 17 | 1.8 | 3 | CCCN(CCCCCCNCCOc1ccc(O)cc1)[C@H]1CCc2c(ccc(O)c2O)C1.Cl.Cl [Compound 24, (S)-N-propyl-N-[6-[2-(4-hydroxyphenoxy)ethylamino]hexyl]-5,6-dihydroxy-1,2,3,4-tetrahydro-2-naphthylamine dihydrochloride] |  |  | 
130 | 1.7 | 0.6 | 1.3 | CCCN(CCCCCCOCCc1ccc(O)c(O)c1)[C@H]1CCc2c(ccc(O)c2O)C1.Cl [Compound 25, (S)-N-propyl-N-[6-[2-(3,4-dihydroxyphenyl)ethoxy]hexyl]-5,6-dihydroxy-1,2,3,4-tetrahydro-2-naphthylamine hydrochloride] |  |  | 
158 | 1 | 0.8 |  | CCCN(CCCCCCNCCc1ccccc1OC)[C@H]1CCc2c(ccc(O)c2O)C1.Cl.Cl [Ref. A, (S)-N-propyl-N-[6-[2-(2-methoxyphenyl)ethylamino]hexyl]-5,6-dihydroxy-1,2,3,4-tetrahydro-2-naphthylamine dihydrochloride, reference compound] | -25 ± 1.1 |  | 
